{"source": "ChEMBL document CHEMBL3352110", "about": "“Design, synthesis and in vitro evaluation of novel dehydroabietic acid derivatives containing a dipeptide moiety as potential anticancer agents” (Eur J Med Chem, 2015)", "key": {"HeLa [1]": {"system": "HeLa", "test": "Induction of apoptosis in human HeLa cells assessed as increase in cytochrome c expression at 10 to 15 uM by Western blotting analysis relative to control", "assay_type": "functional, cell-based"}, "HeLa [2]": {"system": "HeLa", "test": "Induction of apoptosis in human HeLa cells assessed as early apoptotic cells at 15 uM after 12 hrs by Anexin-V-FITC/propidium iodide staining-based flow cytometry (reference value: 1.40%)", "assay_type": "functional"}, "HeLa [3]": {"system": "HeLa", "test": "Induction of cytochrome C release in human HeLa cells assessed as karyopyknosis at 10 to 15 uM after 12 hrs by fluorescence microscopy relative to control", "assay_type": "functional, cell-based"}, "MGC-803": {"system": "MGC-803", "test": "Cytotoxicity against human MGC803 cells after 48 hrs by MTT assay", "assay_type": "functional, cell-based", "settings": "MGC-803, 48 h"}, "HeLa [4]": {"system": "HeLa", "test": "Induction of apoptosis in human HeLa cells assessed as reduction in Bcl2 expression by Western blotting analysis relative to control", "assay_type": "functional, cell-based"}, "HeLa [5]": {"system": "HeLa", "test": "Induction of apoptosis in human HeLa cells assessed as increase in caspase-8 expression at 10 to 15 uM by Western blotting analysis relative to control", "assay_type": "functional, cell-based"}, "HeLa [6]": {"system": "HeLa", "test": "Induction of apoptosis in human HeLa cells assessed as increase in caspase-3 expression at 10 to 15 uM by Western blotting analysis relative to control", "assay_type": "functional, cell-based"}, "HeLa [7]": {"system": "HeLa", "test": "Induction of apoptosis in human HeLa cells assessed as viable cells at 15 uM after 12 hrs by Anexin-V-FITC/propidium iodide staining-based flow cytometry (reference value: 97.2%)", "assay_type": "functional", "settings": "read-out: Activity"}, "[8]": {"test": "Cytotoxicity against human HL7702 cells after 48 hrs by MTT assay", "assay_type": "functional, cell-based", "settings": "L02, 48 h"}, "HeLa [9]": {"system": "HeLa", "test": "Induction of apoptosis in human HeLa cells at 15 uM after 12 to 24 hrs by Hoechst 33258 staining-based assay relative to control", "assay_type": "functional, cell-based"}, "HeLa [10]": {"system": "HeLa", "test": "Induction of apoptosis in human HeLa cells assessed as dead cells at 10 uM after 12 hrs by Anexin-V-FITC/propidium iodide staining-based flow cytometry (reference value: 1.40%)", "assay_type": "functional"}, "HeLa [11]": {"system": "HeLa", "test": "Induction of apoptosis in human HeLa cells assessed as ROS generation at 10 to 15 uM after 12 hrs by DCF-Da staining-based fluorescence microscopy relative to control", "assay_type": "functional, cell-based"}, "HeLa [12]": {"system": "HeLa", "test": "Induction of apoptosis in human HeLa cells assessed as DNA fragmentation at 15 uM after 12 to 24 hrs by TUNEL assay relative to control", "assay_type": "functional, cell-based"}, "HeLa [13]": {"system": "HeLa", "test": "Induction of apoptosis in human HeLa cells assessed as apoptosis ratio at 10 uM after 12 hrs by Anexin-V-FITC/propidium iodide staining-based flow cytometry (reference value: 1.44%)", "assay_type": "functional"}, "HeLa [14]": {"system": "HeLa", "test": "Cell cycle arrest in human HeLa cells assessed as accumulation at G2 phase at 15 uM after 48 hrs by propidium iodide stainin-based flow cytometry (reference value: 5.84%)", "assay_type": "functional"}, "HeLa [15]": {"system": "HeLa", "test": "Cell cycle arrest in human HeLa cells assessed as accumulation at S phase at 10 uM after 48 hrs by propidium iodide stainin-based flow cytometry (reference value: 67.72%)", "assay_type": "functional"}, "HeLa [16]": {"system": "HeLa", "test": "Induction of apoptosis in human HeLa cells assessed as late apoptotic cells at 10 uM after 12 hrs by Anexin-V-FITC/propidium iodide staining-based flow cytometry (reference value: 0.04%)", "assay_type": "functional"}, "HeLa [17]": {"system": "HeLa", "test": "Induction of apoptosis in human HeLa cells assessed as chromatin fragmentation at 15 uM after 12 to 24 hrs by acridine orange/ethidium bromide staining-based assay relative to control", "assay_type": "functional, cell-based"}, "HeLa [18]": {"system": "HeLa", "test": "Cell cycle arrest in human HeLa cells assessed as accumulation at G1 phase at 10 uM after 48 hrs by propidium iodide stainin-based flow cytometry (reference value: 31.44%)", "assay_type": "functional"}, "HeLa [19]": {"system": "HeLa", "test": "Induction of apoptosis in human HeLa cells assessed as caspase-3 activation by spectrophotometry relative to control", "assay_type": "functional, cell-based", "settings": "TDE = time-dependent effect"}, "HeLa [20]": {"system": "HeLa", "test": "Induction of apoptosis in human HeLa cells assessed as early apoptotic cells at 10 uM after 12 hrs by Anexin-V-FITC/propidium iodide staining-based flow cytometry (reference value: 1.40%)", "assay_type": "functional"}, "HeLa [21]": {"system": "HeLa", "test": "Induction of apoptosis in human HeLa cells assessed as late apoptotic cells at 15 uM after 12 hrs by Anexin-V-FITC/propidium iodide staining-based flow cytometry (reference value: 0.04%)", "assay_type": "functional"}, "HeLa [22]": {"system": "HeLa", "test": "Cell cycle arrest in human HeLa cells assessed as accumulation at G1 phase at 15 uM after 48 hrs by propidium iodide stainin-based flow cytometry (reference value: 31.44%)", "assay_type": "functional"}, "HeLa [23]": {"system": "HeLa", "test": "Cell cycle arrest in human HeLa cells assessed as accumulation at S phase at 15 uM after 48 hrs by propidium iodide stainin-based flow cytometry (reference value: 67.72%)", "assay_type": "functional"}, "HeLa [24]": {"system": "HeLa", "test": "Induction of apoptosis in human HeLa cells assessed as change in mitochondrial membrane potential at 15 uM after 12 to 24 hrs by JC-1 staining-based assay relative to control", "assay_type": "functional, cell-based"}, "HeLa [25]": {"system": "HeLa", "test": "Induction of apoptosis in human HeLa cells assessed as dead cells at 15 uM after 12 hrs by Anexin-V-FITC/propidium iodide staining-based flow cytometry (reference value: 1.40%)", "assay_type": "functional"}, "HeLa [26]": {"system": "HeLa", "test": "Induction of apoptosis in human HeLa cells assessed as viable cells at 10 uM after 12 hrs by Anexin-V-FITC/propidium iodide staining-based flow cytometry (reference value: 97.2%)", "assay_type": "functional", "settings": "read-out: Activity"}, "HeLa [27]": {"system": "HeLa", "test": "Cell cycle arrest in human HeLa cells assessed as accumulation at G2 phase at 10 uM after 48 hrs by propidium iodide stainin-based flow cytometry (reference value: 5.84%)", "assay_type": "functional"}, "NCI-H460": {"system": "NCI-H460", "test": "Cytotoxicity against human NCI-H460 cells after 48 hrs by MTT assay", "assay_type": "functional, cell-based", "settings": "NCI-H460, 48 h"}, "HeLa [28]": {"system": "HeLa", "test": "Induction of apoptosis in human HeLa cells assessed as apoptosis ratio at 15 uM after 12 hrs by Anexin-V-FITC/propidium iodide staining-based flow cytometry (reference value: 1.44%)", "assay_type": "functional"}, "HeLa [29]": {"system": "HeLa", "test": "Cytotoxicity against human HeLa cells after 48 hrs by MTT assay", "assay_type": "functional, cell-based"}, "HeLa [30]": {"system": "HeLa", "test": "Induction of apoptosis in human HeLa cells assessed as caspase-9 activation by spectrophotometry relative to control relative to control", "assay_type": "functional, cell-based", "settings": "TDE = time-dependent effect"}, "HeLa [31]": {"system": "HeLa", "test": "Induction of apoptosis in human HeLa cells assessed as increase in Bax expression at 10 to 15 uM by Western blotting analysis relative to control", "assay_type": "functional, cell-based"}, "HeLa [32]": {"system": "HeLa", "test": "Induction of apoptosis in human HeLa cells assessed as chromatin condensation at 15 uM after 12 to 24 hrs by acridine orange/ethidium bromide staining-based assay", "assay_type": "functional, cell-based"}, "HeLa [33]": {"system": "HeLa", "test": "Induction of cytochrome C release in human HeLa cells assessed as nuclei conglomeration at 10 to 15 uM after 12 hrs by fluorescence microscopy relative to control", "assay_type": "functional, cell-based"}}, "note": "pIC50: −log10 of the molar value. The source made the active and inactive calls. No cut-off for these calls is given here."}
{"smiles": "CC(C)c1ccc2c(c1)C(=O)C[C@H]1[C@](C)(C(=O)N[C@@H](Cc3ccccc3)C(=O)Nc3ccccc3Cl)CCC[C@]21C", "values": [{"measurement": "Activity", "setting": "HeLa [1]", "result": "Active"}, {"measurement": "Activity", "setting": "HeLa [2]", "result": 21.8, "unit": "%"}, {"measurement": "Activity", "setting": "HeLa [3]", "result": "Active"}, {"measurement": "pIC50", "setting": "MGC-803", "result": 5.01}, {"measurement": "Activity", "setting": "HeLa [4]", "result": "Dose-dependent effect"}, {"measurement": "Activity", "setting": "HeLa [5]", "result": "Active"}, {"measurement": "Activity", "setting": "HeLa [6]", "result": "Active"}, {"measurement": "viability at 15 µM", "setting": "HeLa [7]", "result": 64, "unit": "%"}, {"measurement": "pIC50", "setting": "[8]", "result": 4.27}, {"measurement": "Activity", "setting": "HeLa [9]", "result": "Active"}, {"measurement": "Activity", "setting": "HeLa [10]", "result": 0.677, "unit": "%"}, {"measurement": "Activity", "setting": "HeLa [11]", "result": "Active"}, {"measurement": "Activity", "setting": "HeLa [12]", "result": "Active"}, {"measurement": "Activity", "setting": "HeLa [13]", "result": 20.53, "unit": "%"}, {"measurement": "Activity", "setting": "HeLa [14]", "result": 1.47, "unit": "%"}, {"measurement": "Activity", "setting": "HeLa [15]", "result": 67.41, "unit": "%"}, {"measurement": "Activity", "setting": "HeLa [16]", "result": 6.93, "unit": "%"}, {"measurement": "Activity", "setting": "HeLa [17]", "result": "Active"}, {"measurement": "Activity", "setting": "HeLa [18]", "result": 27.79, "unit": "%"}, {"measurement": "Activity", "setting": "HeLa [19]", "result": "tde"}, {"measurement": "Activity", "setting": "HeLa [20]", "result": 13.6, "unit": "%"}, {"measurement": "Activity", "setting": "HeLa [21]", "result": 13.7, "unit": "%"}, {"measurement": "Activity", "setting": "HeLa [22]", "result": 15.49, "unit": "%"}, {"measurement": "Activity", "setting": "HeLa [23]", "result": 83.05, "unit": "%"}, {"measurement": "Activity", "setting": "HeLa [24]", "result": "Active"}, {"measurement": "Activity", "setting": "HeLa [25]", "result": 0.612, "unit": "%"}, {"measurement": "viability at 10 µM", "setting": "HeLa [26]", "result": 78.8, "unit": "%"}, {"measurement": "Activity", "setting": "HeLa [27]", "result": 4.8, "unit": "%"}, {"measurement": "pIC50", "setting": "NCI-H460", "result": 4.61}, {"measurement": "Activity", "setting": "HeLa [28]", "result": 34.5, "unit": "%"}, {"measurement": "pIC50", "setting": "HeLa [29]", "result": 5.11}, {"measurement": "Activity", "setting": "HeLa [30]", "result": "tde"}, {"measurement": "Activity", "setting": "HeLa [31]", "result": "Active"}, {"measurement": "Activity", "setting": "HeLa [32]", "result": "Active"}, {"measurement": "Activity", "setting": "HeLa [33]", "result": "Active"}]}
